Laboratory results from paper PMC8294803, “A Roadmap to the Structure-Related Metabolism Pathways of Per- and Polyfluoroalkyl Substances in the Early Life Stages of Zebrafish (Danio rerio)” (Environmental Health Perspectives, 2021).
“And” between values parts separate entries of the source, which are not always exact repeats. Equal values may be shown once. Read-outs that look alike come from different tables or passages of the source.

Experiments:
[1] = target: liver fatty acid binding protein (L-FABP); design: method as in Yang et al. 2020; conditions: ref Yang et al. 2020; read-out: Kd (μM), L-FABP binding affinity; cited from earlier work
zebrafish larvae = test: Bioconcentration factors (BCF) of PFAS in zebrafish larvae; conditions: zebrafish larvae, 120 hpf, three replicates; for BCF 0.5µM: 0.5 µM exposure; for BCF 5µM: 5 µM exposure
Experimental: Zebrafish embryos were collected immediately after spawning, within 1 h, and subsequently transferred to 24-well plates with 1mL of facility water ( 0.036g sea salt, 0.15g sodium bicarbonate in 2L of reverse osmosis water). […] Three well replicates on the same plate were conducted for each concentration of individual chemical. […] Seven batches of experiments were performed to test all 74 PFAS. DMSO controls were incorporated in each batch of exposure experiments. Three replicates were performed for each treatment group, and 20 embryos were used for each replicate. […] For daily replenishment, 2.5mL of old exposure medium were replaced with freshly prepared medium every 24 h from 24 to 96 h post fertilization (hpf). Hatched or dead embryo numbers were recorded every 24 hpf, after which dead embryos were discarded from the growth media. Dead embryos or unhatched embryos were not used for PFAS measurement because the metabolism of PFAS might have been impacted. Zebrafish larvae collection occurred at 120 hpf. First, the larvae were anesthetized by cooling the plate in ice water (0–4°C) for ∼20 min . Then 8–15 larvae in each well were transferred into 1.5-mL tubes. Exposure media was carefully removed, and then the larvae were weighed (wet weight) after blotting excess water with a paper towel. […] Samples were stored at −80 °C until further chemical analysis was performed. Survival rate and hatching rate were calculated by summarizing all the documented data from the whole treatment duration. […] The exposure experiment of PFOSA was repeated using the same procedure as described above.
Each sample was spiked with 2μL of 0.2μg/mL mass-labeled PFAS mixture. Following this, 500μL of dichloromethane/methanol (2:1, vol/vol) was added to each sample for PFAS extraction. Larvae were then homogenized via ultrasonic probe, followed by 30 min of shaking and 30 min of sonication. Each sample was centrifuged at 14,000×g for 5 min, after which the supernatant was transferred to new tubes. Extraction was repeated once and the two supernatants were combined, evaporated under nitrogen flow, and reconstituted in 200μL of methanol for MS analysis.
Three microliters of each zebrafish extract was applied to a C18 column ( 1.5μm; 2.1mm×50mm; Thermo Scientific) and analyzed using a Vanquish ultra-HPLC system (Thermo Fisher Scientific) coupled to a Q Exactive high-resolution mass spectrometer (Thermo Fisher Scientific). The sampler and column compartments were maintained at 4°C and 40°C, respectively. The aqueous mobile phase solution (A) consisted of water, whereas the organic mobile phase solution (B) consisted of acetonitrile. […] MS data was acquired in full scan mode (100–1000 m/z, 70,000 mass resolution, 3×10^6 maximum ions collected per 100 ms), and tandem MS (MS/MS) data was recorded by all-ion fragmentation (AIF) mode. Negative and positive ion modes were carried out simultaneously at a 10-min method duration. […] An overview of the analyses conducted on the various PFAS is available in Table S2.
GraphPad Prism (version 7.0.4; GraphPad Software) and R studio (version 1.1.456; R Studio Inc.) software was used, and an ANOVA with Dunnett tests was employed to evaluate the statistical significance of the percentage hatched and mortality rate. Exponential regressions were used to determine the relationships between bioconcentration factor (BCF) and binding affinities ( Kd ) to L-FABP.

[2] = 5μM through 120 hpf, malformation rate
[3] = zebrafish (Danio rerio), in vivo

## N.O=C(O)C(F)(F)C(F)(F)C(F)(F)C(F)(F)C(F)(F)C(F)(F)C(F)(F)F [compound 21, Ammonium perfluorooctanoate]
[1]
  Kd: 18.7 µM
Zebrafish embryos; [2]
  pericardial oedemata, Mean: 2.22%
  spinal curvature, Mean: 1.11%
  tail dysplasia, Mean: 2.22%
Zebrafish embryos; 5 µM, exposure through 120 hpf
  Mortality (%): 0%
Zebrafish larvae
  BCF 0.5µM: 42.5265 L/kg
  BCF 5µM: 21 ± 0.42 L/kg

## O=C(O)C(F)(F)OC(F)(F)C(F)(F)OC(F)(F)C(F)(F)OC(F)(F)C(F)(F)C(F)(F)C(F)(F)F [compound 34, Perfluoro-3,6,9-trioxatridecanoic acid]
[1]
  Kd: 8.22 µM
Zebrafish embryos; [2]
  pericardial oedemata, Mean: 0.00%
  spinal curvature, Mean: 0.00%
  tail dysplasia, Mean: 0.00%
Zebrafish embryos; 5 µM, exposure through 120 hpf
  Mortality (%): 10%
Zebrafish larvae
  BCF 0.5µM: 585 ± 174 L/kg and 584.908 L/kg
  BCF 5µM: 93 ± 19 L/kg

## O=S(=O)([O-])C(F)(F)C(F)(F)C(F)(F)C(F)(F)F.[K+] [compound 57, Potassium perfluorobutanesulfonate]
[1]
  Kd: 125 µM
Zebrafish embryos; [2]
  pericardial oedemata, Mean: 1.11%
  spinal curvature, Mean: 0.00%
  tail dysplasia, Mean: 0.00%
Zebrafish embryos; 5 µM, exposure through 120 hpf
  Mortality (%): 2.2%
Zebrafish larvae
  BCF 0.5µM: 4.038 L/kg
  BCF 5µM: 3.0 ± 0.54 L/kg

## O=S(=O)([O-])C(F)(F)C(F)(F)C(F)(F)C(F)(F)C(F)(F)C(F)(F)F.[K+] [compound 26, Potassium perfluorohexanesulfonate]
[1]
  Kd: 11.2 µM
Zebrafish embryos; [2]
  pericardial oedemata, Mean: 0.00%
  spinal curvature, Mean: 0.00%
  tail dysplasia, Mean: 0.00%
Zebrafish embryos; 5 µM, exposure through 120 hpf
  Mortality (%): 3.3%
Zebrafish larvae
  BCF 0.5µM: 55.2382 L/kg
  BCF 5µM: 30 ± 0.71 L/kg

## OCC(F)(F)C(F)(F)C(F)(F)C(F)F [compound 48, 1H,1H,5H-Perfluoropentanol]
[1]
  Kd: 916 µM
Zebrafish embryos; [2]
  pericardial oedemata, Mean: 4.44%
  spinal curvature, Mean: 6.67%
  tail dysplasia, Mean: 1.11%
Zebrafish embryos; 5 µM, exposure through 120 hpf
  Mortality (%): 1.1%

## OCC(F)(F)C(F)(F)C(F)(F)C(F)(F)C(F)(F)C(F)(F)C(F)(F)C(F)(F)C(F)(F)C(F)(F)C(F)(F)F [compound 50, 11:1 Fluorotelomer alcohol]
Zebrafish embryos; [2]
  pericardial oedemata, Mean: 1.11%
  spinal curvature, Mean: 0.00%
  tail dysplasia, Mean: 1.11%
Zebrafish embryos; 5 µM, exposure through 120 hpf
  Mortality (%): 1.1%
Zebrafish larvae
  BCF 5µM: 1.7 ± 0.23 L/kg

## O=C(O)C(F)(F)C(F)(F)C(F)(F)C(F)(F)C(F)(F)C(F)(F)C(F)(F)C(F)(F)F [compound 17, Perfluorononanoic acid]
[1]
  Kd: 4.3 µM
Zebrafish embryos; [2]
  pericardial oedemata, Mean: 0.00%
  spinal curvature, Mean: 0.00%
  tail dysplasia, Mean: 0.00%
Zebrafish embryos; 5 µM, exposure through 120 hpf
  Mortality (%): 1.1%
Zebrafish larvae
  BCF 0.5µM: 152.811 L/kg
  BCF 5µM: 73 ± 6.9 L/kg

## O=C(O)C=C(C(F)(F)F)C(F)(F)F [compound 23, 3,3-Bis(trifluoromethyl)-2-propenoic acid]
Zebrafish embryos; [2]
  pericardial oedemata, Mean: 1.11%
  spinal curvature, Mean: 3.33%
  tail dysplasia, Mean: 3.33%
Zebrafish embryos; 5 µM, exposure through 120 hpf
  Mortality (%): 2.2%
Zebrafish larvae
  BCF 0.5µM: 1.831 L/kg
  BCF 5µM: 0.69 ± 0.29 L/kg

## O=S(=O)([O-])C(F)(F)C(F)(F)C(F)(F)C(F)(F)C(F)(F)C(F)(F)C(F)(F)C(F)(F)F.[K+] [compound 6, Potassium perfluorooctanesulfonate]
[1]
  Kd: 8.1 µM
Zebrafish embryos; [2]
  pericardial oedemata, Mean: 1.11%
  spinal curvature, Mean: 2.22%
  tail dysplasia, Mean: 1.11%
Zebrafish embryos; 5 µM, exposure through 120 hpf
  Mortality (%): 2.2%
Zebrafish larvae
  BCF 0.5µM: 288 ± 99 L/kg and 287.815 L/kg
  BCF 5µM: 82 ± 9.2 L/kg

## O=C(O)C(F)(F)C(F)(F)C(F)(F)C(F)(F)C(F)(F)F [compound 20, Perfluorohexanoic acid]
[1]
  Kd: 141 µM
Zebrafish embryos; [2]
  pericardial oedemata, Mean: 0.00%
  spinal curvature, Mean: 0.00%
  tail dysplasia, Mean: 0.00%
Zebrafish embryos; 5 µM, exposure through 120 hpf
  Mortality (%): 0%
Zebrafish larvae
  BCF 0.5µM: 6.647 L/kg
  BCF 5µM: 3.5 ± 0.64 L/kg

## OCC(F)(F)C(F)(F)C(F)(F)CO [compound 35, Hexafluoroamylene glycol]
Zebrafish embryos; [2]
  pericardial oedemata, Mean: 1.11%
  spinal curvature, Mean: 4.44%
  tail dysplasia, Mean: 0.00%
Zebrafish embryos; 5 µM, exposure through 120 hpf
  Mortality (%): 0%
Zebrafish larvae
  BCF 0.5µM: 1.573 L/kg
  BCF 5µM: 1.1 ± 0.09 L/kg

## O=C(O)C(F)(F)OC(F)(F)C(F)(F)OC(F)(F)F [compound 54, Perfluoro-3,6-dioxaheptanoic acid]
[1]
  Kd: 252 µM
Zebrafish embryos; [2]
  pericardial oedemata, Mean: 1.11%
  spinal curvature, Mean: 0.00%
  tail dysplasia, Mean: 1.11%
Zebrafish embryos; 5 µM, exposure through 120 hpf
  Mortality (%): 2.2%
Zebrafish larvae
  BCF 0.5µM: 2.103 L/kg
  BCF 5µM: 2.0 ± 0.40 L/kg

## O=C(O)C(F)(F)OC(F)(F)C(F)(F)OC(F)(F)C(=O)O [compound 7, Perfluoro-3,6-dioxaoctane-1,8-dioic acid]
Zebrafish embryos; [2]
  pericardial oedemata, Mean: 2.22%
  spinal curvature, Mean: 1.11%
  tail dysplasia, Mean: 0.00%
Zebrafish embryos; 5 µM, exposure through 120 hpf
  Mortality (%): 1.1%
Zebrafish larvae
  BCF 0.5µM: NDb

## O=C(O)C(F)(F)C(F)(F)C(F)(F)OC(F)(F)F [compound 28, Perfluoro(4-methoxybutanoic) acid]
[1]
  Kd: 815 µM
Zebrafish embryos; [2]
  pericardial oedemata, Mean: 0.00%
  spinal curvature, Mean: 2.22%
  tail dysplasia, Mean: 0.00%
Zebrafish embryos; 5 µM, exposure through 120 hpf
  Mortality (%): 1.1%
Zebrafish larvae
  BCF 0.5µM: 5.238 L/kg
  BCF 5µM: 1.4 ± 0.17 L/kg

## O=C(/C=C(\O)C(F)(F)F)C(F)(F)F [compound 61, 3H-Perfluoro-4-hydroxy-3-penten-2-one]
[1]
  Kd: 135 µM
Zebrafish embryos; [3]
  Mortality (%): 4.4
  pericardial oedemata, Mean: 0.00%
  spinal curvature, Mean: 0.00%
  tail dysplasia, Mean: 0.00%
Zebrafish larvae
  BCF 5µM: 7.7 ± 2.3 L/kg

## CCNS(=O)(=O)C(F)(F)C(F)(F)C(F)(F)C(F)(F)C(F)(F)C(F)(F)C(F)(F)C(F)(F)F [compound 24, N-Ethylperfluorooctanesulfonamide]
Zebrafish embryos; [2]
  pericardial oedemata, Mean: 1.11%
  spinal curvature, Mean: 1.11%
  tail dysplasia, Mean: 1.11%
Zebrafish embryos; 5μM, 5 d
  Lethal effects on zebrafish larvae: did not cause significant lethal effects
Zebrafish embryos; 5 µM, exposure through 120 hpf
  Mortality (%): 3.3%
Zebrafish larvae
  BCF 0.5µM: 28.4424 L/kg
  BCF 5µM: 24 ± 2.9 L/kg

## O=S(=O)(O)C(F)(F)C(F)(F)C(F)(F)C(F)(F)C(F)(F)C(F)(F)C(F)(F)C(F)(F)F [compound 46, Perfluorooctanesulfonic acid]
[1]
  Kd: 8.1 µM
Zebrafish embryos; [2]
  pericardial oedemata, Mean: 0.00%
  spinal curvature, Mean: 0.00%
  tail dysplasia, Mean: 0.00%
Zebrafish embryos; 5 µM, exposure through 120 hpf
  Mortality (%): 2.2%
Zebrafish larvae
  BCF 0.5µM: 270.546 L/kg
  BCF 5µM: 91 ± 10 L/kg

## O=S(=O)(O)CCC(F)(F)C(F)(F)C(F)(F)C(F)(F)F [compound 15, 4:2 Fluorotelomer sulfonic acid]
Zebrafish embryos; in vivo
  Mortality (%): 0
  pericardial oedemata, Mean: 1.11%
  spinal curvature, Mean: 0.00%
  tail dysplasia, Mean: 0.00%
Zebrafish larvae
  BCF 0.5µM: 5.68 L/kg
  BCF 5µM: 2.5 ± 0.13 L/kg

## O=S(=O)(O)C(F)(F)C(F)(F)C(F)(F)C(F)(F)F [compound 73, Perfluorobutanesulfonic acid]
[1]
  Kd: 116 µM
Zebrafish embryos; [2]
  pericardial oedemata, Mean: 0.00%
  spinal curvature, Mean: 1.11%
  tail dysplasia, Mean: 0.00%
Zebrafish embryos; 5 µM, exposure through 120 hpf
  Mortality (%): 5.6%
Zebrafish larvae
  BCF 0.5µM: 2.903 L/kg
  BCF 5µM: 2.8 ± 0.47 L/kg
